According to patent publication US10603304B1, “Compositions and methods for treating anxiety” (priority 2015, dated 2020):

What was measured:
[1] = test system: lynx2KO mice; experiment: light dark box experiment (latency to enter dark enclosed environment); assay type: in vivo; conditions: lynx2KO mice under chronic stress with administration of mec, as opposed to lynx2KO mice without mec (FIG. 2A)
From the text: FIG. 2A is a graph of the time in seconds (latency) for wild type (WT) (black bars) or lynx2 knock out (KO) (white bars) mice to enter a dark enclosed environment under conditions of saline, chronic stress, or chronic stress with administration of mecamylamine (mec) as indicated, according to embodiments of the present invention.

[2] = test system: lynx2KO mice; experiment: fear extinction experiment (fear associated with a noise after shock training); assay type: in vivo; conditions: lynx2KO mice with administration of mec compared to lynx2KO mice without mec (FIGS. 2B-2C)
Protocol: FIG. 2B is a graph of fear observed in wild type (black circles) and lynx2KO mice (white triangles) after fear training (an electric shock depicted in yellow) associated with a noise for 24 hours followed by the same noise without the shock to measure the mouse's capability to lose the fear, according to embodiments of the present invention.
FIG. 2C is a graph of fear observed in lynx2KO mice during the fear extinction experiment of FIG. 2B with a group of lynx2KO mice receiving mecamylamine (mec), according to embodiments of the present invention.

[3] = test system: amygdala (EC) neurons of lynx2KO mice; experiment: long term depression (LTD) of evoked fEPSPs in brain slices after theta pulse stimulations; assay type: cell-based; conditions: brain slices from lynx2KO mice in ACSF solution with 20 mM methyllycaconitine (MLA), theta pulse stimulations (FIG. 4D)
Protocol: FIG. 4D is a graph of stimulating electrode traces from long term depression (LTD) experiments using extracellular recordings for evoked field excitatory post-synaptic potentials (fEPSPs) in […] (EC) brain slices in ACSF solution with […] methyllycaconitine (MLA) from lynx2 knockout (KO) mice before (left of zero minutes) and after (right of zero minutes) theta pulse stimulations (TSP), according to embodiments of the present invention.
The animals were anesthetized by isoflurane in an anesthetic chamber to a tolerant state (ml/kg) and euthanized through decapitation. […]
Field excitatory postsynaptic potentials (fEPSPs) were evoked by 0.05 Hz test stimulus though a bipolar stimulating electrode placed on external Capsule (EC), and a glass pipette as recording electrode was filled with ACSF and placed in BLA. […] Access resistances were continuously monitored and neurons with more than 20% change of series resistance were excluded from data analysis.
The plasticity ratio was calculated from the average EPSP amplitude of the last 10 mins of baseline recording and the last 15 mins after high frequency or low stimulus, for LTP and LTD studies, respectively. […] For all experiments, treatment effects were analyzed with one-way ANOVA, followed by the appropriate post hoc tests. […]

SMILES | latency to dark [1] | ability to unlearn a fear associated with a noise (fear extinction) [2] | rescue of induced long term depression (LTD) [3]
CNC1(C)C2CCC(C2)C1(C)C (stereo not drawn) [mecamylamine] | increased latency to dark | increased ability to unlearn a fear | –
CCN1C[C@]2(COC(=O)c3ccccc3N3C(=O)C[C@H](C)C3=O)CC[C@H](OC)[C@@]34[C@@H]5C[C@H]6[C@H](OC)[C@@H]5[C@](O)(C[C@@H]6OC)[C@@](O)([C@@H](OC)[C@H]23)[C@@H]14 [methyllycaconitine] | – | – | able to rescue induced long term depression (LTD)
